The source of these data is patent US20190015379A1, “USE OF DIANHYDROGALACTITOL AND ANALOGS AND DERIVATIVES THEREOF, TOGETHER WITH RADIATION, TO TREAT NON-SMALL-CELL CARCINOMA OF THE LUNG AND GLIOBLASTOMA MULTIFORME AND SUPPRESS PROLIFERATION OF CANCER STEM CELLS” (DelMar Pharmaceuticals, Inc., priority 2014, published 2019).

The test system of one series is GBM. Particulars: GBM; Eagan (1979), Stupp (2005); cited from earlier work.
Series [1] concerns A549 human lung adenocarcinoma xenograft tumors. Nature of the series: A549 NSCLC xenograft tumor growth in Rag2 mice. It counts as in vivo, female Rag2 mice. The method, then: The purpose of the study reported in this Example is to evaluate the activity of dianhydrogalactitol in in vivo models of drug-resistant NSCLC in comparison to other drugs, including cisplatin. Rag2 mice bearing subcutaneous human lung adenocarcinoma xenograft tumors of either TKI-resistant (H1975) or TKI-sensitive (A549) origin were treated.
Two human NSCLC cell lines, A549 (TKI-sensitive) and H1975 (TKI-resistant), were used as xenograft tumor models in female Rag2 mice. The mice were 6 to 8 weeks of age and weighed 18-23 grams. 10 mice were used per group.
Cisplatin was used in normal saline at a dose of 5 mg/kg. Administration was intravenous.
Dianhydrogalactitol was used in 0.9% sodium chloride for injection at 1.5 mg/kg to 6 mg/kg. Administration was intraperitoneal.
Treatment was initiated at a tumor volume of 100 mm^3 to 150 mm^3.
On day 0, tumor cells were implanted subcutaneously into mice in a volume of 50 μL in Matrigel™ using a 28-gauge needle; injection of the tumor cells was in the back of the mice. Mice were randomly assigned to groups based on tumor volume.
(§1) Tumor growth was monitored by measuring tumor dimensions with calipers beginning on the first day of treatment. Tumor length and width measurements were obtained each Monday, Wednesday, and Friday. Tumor volumes were calculated according to the equation L×W^2/2 with the length (in mm) being defined as the longer axis of the tumor. Animals were weighed at the time of tumor measurement. Tumors were allowed to grow to a maximum of 800 mm^3 before termination.

Series [2] is described as follows: Tolerability in A549 tumor-bearing Rag2 mice (body weight, CBC, clinical observations). The method, then:
as §1
All animals had blood collected by cardiac puncture at termination for CBC (complete blood count) with differentiation.
In particular, signs of ill-health were based on body weight loss, change in appetite, and behavioral signs such as altered gait, lethargy, and gross manifestations of stress. If signs of severe toxicity or tumor-related illness were seen, the animals were terminated by isoflurane overdose followed by CO2 asphyxiation, and a necropsy was performed to assess other signs of toxicity. The following organs were examined: liver, gall bladder, spleen, lung, kidney, heart, intestine, lymph nodes, and bladder. Any unusual findings were noted.

The conditions of series [3]: Mischler et al. 1979; cited from earlier work.
The conditions of series [4]: GBM chemotherapy, historical data; cited from earlier work.
[5] abbreviates: cisplatin 5 mg/kg Q7D x 3 i.v. (group 2).

Molecules are shown by their SMILES.

Turning to `O=NN(CCCl)C(=O)NCCCl` [Carmustine, carmustine, reference compound], the “Median O.S. (XRT + Chemo)” value with GBM is recorded as 40-50 weeks.
For `N.N.[Cl][Pt][Cl]` [cisplatin, reference compound], in series [1] (setting [5]), the “day on which a mean tumor volume of 400 mm^3 was reached” value turned out to be 66 days, the “number of animals remaining on study on day 70” value is recorded as 6/10 and the tumor doubling time worked out at 17. In series [1] (cisplatin 5 mg/kg Q7D x 3 i.v. (group 2), days post-inoculation), the “day on which a mean tumor volume of 200 mm^3 was observed” value is 49 days. For the same molecule, the “tumor growth delay compared to untreated controls” value in series [1] (cisplatin 5 mg/kg i.v. (positive control)) is given as 4 days. In addition, in series [2] (cisplatin 5 mg/kg (group 2)), the body weight loss result was “body weight loss was observed”. Further, in series [2] (cisplatin 5 mg/kg, 1 mouse unable to receive the last dose), the “tolerability of the dosage” value was “may also be near the MTD”.
On to `O[C@H]([C@H](O)[C@@H](O)CBr)[C@H](O)CBr` [dibromodulcitol], for which the “absorption by the oral route” value in series [3] is “rapid and fairly complete”.
On to `Cn1nnc2c(C(N)=O)ncn2c1=O` [temozolomide, reference compound], for which, in series [4], the DLT entry is “Hematologic”, the Nadir was 21 to 28 days and the Recovery result was “Within 14 days”.
